According to patent US5422342A, “2,3-disubstituted isoxazolidines, agents containing them and their use” (Hoechst Aktiengesellschaft, priority 1986, dated 1995):
Values joined by “and” are separate entries in the source; they are usually repeats but may differ in a detail not shown here. Equal entries are not always repeated.

Assays:
[1] = target: prolyl hydroxylase (Homo sapiens, UniProt P13674); experiment: prolyl hydroxylase enzyme assay with preincubation (suicide inhibition); assay type: biochemical; conditions: concentration which inactivates 50% of the enzyme after one hour; preincubation with iron(II) ions, α-ketoglutarate and ascorbate
prolyl hydroxylase, sequence (P13674 18-534): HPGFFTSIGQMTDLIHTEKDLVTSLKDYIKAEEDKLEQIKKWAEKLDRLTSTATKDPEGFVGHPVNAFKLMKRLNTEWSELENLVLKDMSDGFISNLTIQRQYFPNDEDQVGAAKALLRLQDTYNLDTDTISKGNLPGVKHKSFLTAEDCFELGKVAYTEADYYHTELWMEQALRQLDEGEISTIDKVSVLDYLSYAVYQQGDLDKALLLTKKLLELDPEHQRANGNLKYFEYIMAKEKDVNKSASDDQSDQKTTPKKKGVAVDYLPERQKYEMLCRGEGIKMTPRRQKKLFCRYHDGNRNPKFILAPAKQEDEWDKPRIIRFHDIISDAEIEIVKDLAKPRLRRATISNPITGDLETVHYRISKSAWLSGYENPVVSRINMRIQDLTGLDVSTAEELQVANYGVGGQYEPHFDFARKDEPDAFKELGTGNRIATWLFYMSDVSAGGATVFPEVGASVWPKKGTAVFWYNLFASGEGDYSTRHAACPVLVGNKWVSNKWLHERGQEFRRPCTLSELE
prolyl hydroxylase, sequence (P07237 18-508 partner): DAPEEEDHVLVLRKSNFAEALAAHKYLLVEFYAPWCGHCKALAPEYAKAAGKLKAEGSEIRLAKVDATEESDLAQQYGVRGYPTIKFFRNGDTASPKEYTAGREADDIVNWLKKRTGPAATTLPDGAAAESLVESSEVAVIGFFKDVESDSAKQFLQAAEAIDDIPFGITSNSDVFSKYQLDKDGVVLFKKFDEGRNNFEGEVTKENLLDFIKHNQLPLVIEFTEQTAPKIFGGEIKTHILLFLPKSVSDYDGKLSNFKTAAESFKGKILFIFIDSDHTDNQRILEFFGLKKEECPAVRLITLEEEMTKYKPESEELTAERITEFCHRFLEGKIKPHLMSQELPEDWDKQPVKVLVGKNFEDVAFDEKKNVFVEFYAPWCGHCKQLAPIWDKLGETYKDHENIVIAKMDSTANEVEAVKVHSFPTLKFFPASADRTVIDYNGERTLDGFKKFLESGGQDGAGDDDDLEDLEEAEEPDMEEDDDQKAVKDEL
Procedure: The inhibitory action can be determined in an enzyme assay analogous to the method of B. Peterkofsky and R. DiBlasio Anal. Biochem. 66, 279-286 (1975). This entails underhydroxylated collagen being enzymatically hydroxylated with prolyl hydroxylase in the presence of iron(II) ions, α-ketoglutarate and ascorbate.
The suicidal nature of the inhibition is established by preincubation of the enzyme in the presence of iron(II) ions, α-ketoglutarate and ascorbate with the inhibitors for various times, and then determination of the remaining activity of the enzyme in the presence of a peptide substrate. It is possible to use for determination of the activity both the method of Peterkofsky and DiBlasio described above and other methods such as described by K. I. Kivirikko and R. Myllyla, Meth. Enzym. 82, 245-304 (1982). The concentration which inactivates 50% of the enzyme after one hour is stated.

[2] = test system: calvarial culture; experiment: inhibitory action in calvarial culture (hydroxyproline/proline quotient); assay type: cell-based; conditions: concentration giving 50% decrease in the hydroxyproline/proline quotient on feeding with 14C-proline
From the text: The inhibitory action can also be determined in cell or tissue culture. It is possible to use for this purpose fibroblasts or other collagen-producing cells, or calvariae or other collagen-producing organs. Table 2 is a compilation of the inhibitory action of some substances according to the invention in calvarial culture. The concentration which results in a 50% decrease in the hydroxyproline/proline quotient on feeding with ^14 C-proline is stated.

[3] = test system: C1q biosynthesis by macrophages; conditions: W. Muller et al., FEBS Lett. 90, 218f (1978); cited from earlier work

Compound	ID50 [60 min; μmol/l] [1]	IC50 [2]	effect on C1q biosynthesis by macrophages [3]
Z-Phe(r)-Opr-Gly-OBzl [Z--Phe(r)--Opr--Gly--OBzl]	1.1 µmol/L	–	–
CC(NC(=O)OCc1ccccc1)C(=O)N1OCCC1C(=O)NCC(=O)OC(C)(C)C (centres unmarked) [Z--Ala--Opr--Gly--OtBu, Z--Ala--Opr--Gly--OtBU]	40.0 µmol/L	–	–
CC(NC(=O)OCc1ccccc1)C(=O)N1OCCC1C(=O)NCC(=O)O (centres unmarked) [Z--Ala--Opr--Gly--OH]	330.0 µmol/L	–	–
CCN(CC)C(=O)CNC(=O)C1CCON1C(=O)C1CCCN1C(C)=O (centres unmarked) [Ac--Pro--Opr--Gly--N(C2 H5)2]	16900.0 µmol/L	–	–
O=C(CNC(=O)C1CCON1C(=O)C(Cc1ccc(O)cc1)NC(=O)OCc1ccccc1)OCc1ccccc1 (centres unmarked) [Z--Tyr--Opr--Gly--OBzl]	2.4 µmol/L	–	–
O=C(CNC(=O)C1CCON1C(=O)C(Cc1ccccc1)NC(=O)OCc1ccccc1)OCc1ccc(F)cc1 (centres unmarked) [Z--Phe--Opr--Gly--O--CH2 --C6 H4-4-F]	0.8 µmol/L	–	–
CC(=O)N1CCCC1C(=O)N1OCCC1C(=O)NCC(=O)NCCc1ccccc1 (centres unmarked) [Ac--Pro--Opr--Gly--NH--CH2 --CH2 --C6 H5]	4900.0 µmol/L	–	–
O=C(CNC(=O)C1CCON1C(=O)C(Cc1ccccc1)NC(=O)OCc1ccccc1)OCc1ccccc1 (stereo not drawn) [Z--Phe--Opr--Gly--OBzl, Z-Phe-Opr-Gly-OBzl]	0.8 µmol/L	–	–
CC(=O)N1CCCC1C(=O)N1OCCC1C(=O)NCC(=O)OC(C)(C)C (centres unmarked) [Ac--Pro--Opr--Gly--OtBu]	8000.0 µmol/L	7500 µM	–
HPheOprNHCH2 COC6 H4 -4-Cl [H--Phe--Opr--NH--CH2 --CO--C6 H4-4-Cl]	15.5 µmol/L	–	–
N#Cc1ccc(C(=O)CNC(=O)C2CCON2C(=O)C(Cc2ccccc2)NC(=O)OCc2ccccc2)cc1 (centres unmarked) [Z--Phe--Opr--NH--CH2 --CO--C6 H4-4-CN, ZPheOprNHCH2 COC6 H4-4-CN]	1.1 µmol/L	–	–
CC(C)C(NC(=O)OCc1ccccc1)C(=O)N1OCCC1C(=O)NCC(=O)OCc1ccccc1 (centres unmarked) [Z--Val--Opr--Gly--OBzl]	40.0 µmol/L	380 µM	–
O=C(NC(Cc1ccccc1)C(=O)N1OCCC1C(=O)NCC(=O)c1ccccc1)OCc1ccccc1 (centres unmarked) [Z--Phe--Opr--NH--CH2 --CO--C6 H5, ZPheOprNHCH2 COC6 H5]	2.4 µmol/L	–	–
O=C(CCc1ccccc1)CNC(=O)C1CCON1C(=O)C(Cc1ccccc1)NC(=O)OCc1ccccc1 (stereo not drawn) [Z-Phe-Opr-NH--CH2 --CO--CH2 --CH2 --C6 H5]	3.4 µmol/L	–	–
C[C@H](NC(=O)OCc1ccccc1)C(=O)N1OCCC1C(=O)NCC(=O)OCc1ccccc1 (some centres unmarked) [Z--Ala--Opr--Gly--OBzl]	3.0 µmol/L	1650 µM and 2500 µM	–
CC(=O)N1CCCC1C(=O)N1OCCC1C(=O)NCC(=O)NCc1ccccc1 (centres unmarked) [Ac--Pro--Opr--Gly--NH--CH2 --C6 H5]	6000.0 µmol/L	–	–
CC(NC(=O)OCc1ccccc1)C(=O)N1OCCC1C(=O)NCC(=O)OCc1ccccc1 (centres unmarked) [Z--(D)--Ala--Opr--Gly--OBzl, Z--(D)-- Ala--Opr--Gly--OBzl]	> 10000.0 µmol/L	–	–
O=C(CNC(=O)C1CCON1C(=O)C1Cc2ccccc2CN1C(=O)OCc1ccccc1)OCc1ccccc1 (centres unmarked) [Z--Tic--Opr--Gly--OBzl]	1.5 µmol/L	–	–
O=C(CNC(=O)C1CCON1C(=O)C(CCCCN1C(=O)c2ccccc2C1=O)NC(=O)OCc1ccccc1)OCc1ccccc1 (centres unmarked) [Z--Lys(Pht)--Opr--Gly--OBzl]	11.0 µmol/L	–	–
c1ccc(-c2ccccn2)nc1 [α,α-dipyridyl]	–	–	inhibition of C1q biosynthesis by macrophages
O=C(CNC(=O)C1CCON1Cc1ccccc1)OCc1ccccc1 (stereo not drawn) [C6 H5 --CH2 --Opr--Gly--OBzl, C6 H5 --CH2 -Opr-Gly-OBzl]	610.0 µmol/L	–	–
O=C(CNC(=O)C1CCON1C(=O)Cc1ccccc1)OCc1ccccc1 (centres unmarked) [C6 H5 --CH2 --CO--Opr--Gly--OBzl]	1000.0 µmol/L	2000 µM	–
CN(CC(=O)OCc1ccccc1)C(=O)C1CCON1C(=O)C(Cc1ccccc1)NC(=O)OCc1ccccc1 (centres unmarked) [Z--Phe--Opr--Sar-- OBzl, Z--Phe--Opr--Sar--OBzl]	> 10000.0 µmol/L	–	–
CC(=O)N1CCCC1C(=O)N1OCCC1C(=O)NCC(=O)OCc1ccccc1 (centres unmarked) [Ac--Pro--Opr--Gly--OBzl]	60.0 µmol/L	–	–
O=C(CNC(=O)C1CCON1C(=O)Cc1ccccc1)OCc1ccc([N+](=O)[O-])cc1 (centres unmarked) [4-Nitrobenzyl ester of N-phenylacetyl-Opr-Gly]	540.0 µmol/L	2500 µM	–
O=C(O)CCC(NC(=O)OCc1ccccc1)C(=O)N1OCCC1C(=O)NCC(=O)OCc1ccccc1 (centres unmarked) [Z--Glu--Opr--Gly--OBzl]	5000.0 µmol/L	–	–
O=C(CNC(=O)C1CCON1C(=O)C(Cc1ccccc1)NC(=O)OCc1ccccc1)OCCc1ccccc1 (centres unmarked) [Z--Phe--Opr--Gly--O--CH2 --CH2 --C6 H5]	0.9 µmol/L	–	–
CS(=O)(=O)CCOC(=O)NC(CCC(=O)OCc1ccccc1)C(=O)N1OCCC1C(=O)NCC(=O)OCc1ccccc1 (centres unmarked) [Msc--Glu(OBzl)--Opr--Gly--OBzl]	30.0 µmol/L	–	–
CC(C)(C)OC(=O)CNC(=O)C1CCON1C(=O)C1CCCN1C(=O)OCc1ccccc1 (centres unmarked) [Z--Pro--Opr--Gly--OtBu]	–	550 µM	–
O=C(CNC(=O)C1CCON1C(=O)CCc1ccccc1)OCc1ccccc1 (centres unmarked) [C6 H5 --CH2 --CH2 --CO--Opr--Gly--OBzl, N-3-Phenylpropionyl-Opr--Gly--OBzl]	2000.0 µmol/L	–	–
